Assay results: PMC7753999, “Molecular docking‐assisted screening reveals tannic acid as a natural protein disulphide isomerase inhibitor with antiplatelet and antithrombotic activities” (Journal of Cellular and Molecular Medicine, 2020)

Legend:
ERp57 = target: T1, ERp57 (Homo sapiens, UniProt P30101); experiment: Di-E-GSSG fluorescence reductase assay, recombinant enzyme […]; type: biochemical
T1 construct: gene PDIA3
T1 sequence (P30101 25-505): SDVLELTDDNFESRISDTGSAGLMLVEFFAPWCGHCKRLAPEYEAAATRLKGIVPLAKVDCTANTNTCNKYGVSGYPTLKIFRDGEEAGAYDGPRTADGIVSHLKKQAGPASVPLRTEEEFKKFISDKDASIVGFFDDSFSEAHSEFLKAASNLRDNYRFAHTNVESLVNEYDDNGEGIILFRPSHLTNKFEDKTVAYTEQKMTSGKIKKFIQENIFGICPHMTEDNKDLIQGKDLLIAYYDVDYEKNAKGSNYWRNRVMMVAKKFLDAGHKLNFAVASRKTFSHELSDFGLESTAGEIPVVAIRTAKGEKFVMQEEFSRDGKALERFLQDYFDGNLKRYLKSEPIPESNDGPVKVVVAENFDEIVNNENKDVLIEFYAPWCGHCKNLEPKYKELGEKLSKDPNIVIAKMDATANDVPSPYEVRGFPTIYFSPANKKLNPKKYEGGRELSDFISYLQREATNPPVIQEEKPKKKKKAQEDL

[1] = target: T2, Protein disulphide isomerase (PDI) (Homo sapiens, UniProt P07237); experiment: SPR with immobilized recombinant human PDI; also inhibits in Di-E-GSSG reductase and insulin reduction assays; type: binding
T2 construct: gene P4HB

ERp72 = target: T3, ERp72 (Homo sapiens, UniProt P13667); experiment: Di-E-GSSG fluorescence reductase assay, recombinant enzyme […]; type: biochemical
T3 construct: gene PDIA4
T3 sequence (P13667 21-645): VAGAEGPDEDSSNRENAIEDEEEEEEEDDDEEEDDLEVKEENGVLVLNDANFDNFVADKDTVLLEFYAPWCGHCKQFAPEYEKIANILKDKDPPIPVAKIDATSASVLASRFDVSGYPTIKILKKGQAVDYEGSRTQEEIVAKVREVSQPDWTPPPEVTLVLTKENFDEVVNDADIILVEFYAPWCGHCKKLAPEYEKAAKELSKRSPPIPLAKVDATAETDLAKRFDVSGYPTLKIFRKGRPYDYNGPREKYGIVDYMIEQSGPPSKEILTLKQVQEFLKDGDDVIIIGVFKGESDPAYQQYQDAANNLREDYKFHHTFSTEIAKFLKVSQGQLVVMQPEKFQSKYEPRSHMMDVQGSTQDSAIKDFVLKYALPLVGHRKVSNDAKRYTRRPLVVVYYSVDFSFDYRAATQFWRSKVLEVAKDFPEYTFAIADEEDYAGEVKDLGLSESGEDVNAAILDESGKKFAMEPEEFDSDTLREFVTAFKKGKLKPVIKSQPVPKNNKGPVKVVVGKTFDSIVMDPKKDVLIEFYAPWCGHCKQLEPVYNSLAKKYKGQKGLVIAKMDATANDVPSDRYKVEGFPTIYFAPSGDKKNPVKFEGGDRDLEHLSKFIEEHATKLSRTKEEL

T2 sequence (P07237 18-508): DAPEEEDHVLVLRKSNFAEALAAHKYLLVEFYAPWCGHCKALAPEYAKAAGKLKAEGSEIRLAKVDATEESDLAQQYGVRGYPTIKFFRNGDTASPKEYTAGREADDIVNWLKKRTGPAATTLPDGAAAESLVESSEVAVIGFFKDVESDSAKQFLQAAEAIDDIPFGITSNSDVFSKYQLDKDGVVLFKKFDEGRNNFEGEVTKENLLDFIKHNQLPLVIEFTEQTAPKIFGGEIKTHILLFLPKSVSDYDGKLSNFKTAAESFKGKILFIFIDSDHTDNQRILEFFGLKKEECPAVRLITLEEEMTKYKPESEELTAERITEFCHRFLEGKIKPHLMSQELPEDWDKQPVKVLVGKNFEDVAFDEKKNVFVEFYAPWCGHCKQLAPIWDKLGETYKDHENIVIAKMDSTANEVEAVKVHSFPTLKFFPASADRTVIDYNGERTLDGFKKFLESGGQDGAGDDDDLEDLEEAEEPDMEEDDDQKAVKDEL

## O=C(OC[C@H]1O[C@@H](OC(=O)c2cc(O)c(O)c(OC(=O)c3cc(O)c(O)c(O)c3)c2)[C@H](OC(=O)c2cc(O)c(O)c(OC(=O)c3cc(O)c(O)c(O)c3)c2)[C@@H](OC(=O)c2cc(O)c(O)c(OC(=O)c3cc(O)c(O)c(O)c3)c2)[C@@H]1OC(=O)c1cc(O)c(O)c(OC(=O)c2cc(O)c(O)c(O)c2)c1)c1cc(O)c(O)c(OC(=O)c2cc(O)c(O)c(O)c2)c1 [TA, Tannic acid]
ERp57
  Di-E-GSSG fluorescence reductase assay, recombinant enzyme 20 nmol/L: TA impaired the reductase activity of other platelet PDI family members ERP57 and ERP72
[1]
  Kd: < 1.68 nM
ERp72
  Di-E-GSSG fluorescence reductase assay, recombinant enzyme 20 nmol/L: TA impaired the reductase activity of other platelet PDI family members ERP57 and ERP72
